Data as given in US5677459A, “Methods for the preparation of modulators of acetylcholine receptors” (Sibia Neurosciences, Inc., priority 1995, dated 1997).
Where two headings read alike, the source gives them in different places.

Key:
[1] = molecular target: T1, nicotinic acetylcholine receptor (Rattus norvegicus, UniProt P09483+P12390); assay: ^3 H-Nicotine binding/displacement, rat cerebral membranes
T1 construct: the brains removed and the cerebral cortex dissected on ice; from tissue; host or cells: cerebral cortex synaptic membranes of male Sprague-Dawley rats
Protocol: ^3 H-Nicotine binding to rat cerebral membranes was performed according to modifications of the method of Flyn and Mash (J. Neurochem. 47:1948 (1986)). ^3 H-Nicotine (80 ci/mmol; New England Nuclear Corporation, Boston, Mass.) was used as the ligand for nicotinic acetylcholine receptor binding assays. All other reagents were purchased from the Sigma Chemical Co. (St. Louis, Mo.).
Male Sprague-Dawley rats (250-400 gm) were sacrificed by decapitation, the brains removed and the cerebral cortex dissected on ice. Synaptic membranes were prepared by homogenizing the cortical tissue in 20 volumes of ice-cold modified Tris buffer (50 mM Tris pH 7.4, 120 mM NaCl, 5 mM KCl, 2 mM EDTA, 1 mM PMSF) with a polytron (20 sec at setting 5-6) followed by centrifugation (15 min at 5,000×g) at 4° C. The resultant pellet was rehomogenized and centrifuged twice. The final pellet was resuspended in ice-cold assay buffer (50 mM Tris pH 7.4, 120 mM NaCl, 5 mM KCl, 2 mM CaCl2, 1 mM MgCl2) at a concentration of membrane equivalent to 1 gm wet weight cortex per 10 ml buffer. After protein determination the final membrane preparation was diluted with buffer to 3 mg protein/mi. This membrane preparation was used in either the fresh state or frozen (-70° C.) then thawed.
The binding assay is performed manually using 96-well plates, or using a Biomek automated work station (Beckman Instrument Co.). ^3 H-Nicotine was diluted in assay buffer to give a final concentration of 1.9 nM. The Biomek automated work station was programmed to automatically transfer 750 μl of assay buffer with ^3 H-nicotine, 230 μl of membrane preparation and 20 μl of solution containing the compound of interest in assay buffer, DMSO, ethanol:DMSO (1:1) or appropriate vehicle to the 96-well plate. Atropine was added to the incubation buffer at a final concentration of 3 μM to block binding to muscarinic acetylcholine receptor sites. The plates were maintained on ice for 60 min and the tissue-bound radioactivity was separated from the free by rapid filtration in a Brandel Harvester onto GF/C filters presoaked in 0.5% polyethyleneimine for at least 2 hr. The filters were washed with 4×2 ml of ice-cold assay buffer and filters were transferred to vials to which 4 ml of scintillation cocktail was added. The radioactivity was measured in a LS-6500 Beckman Liquid Scintillation Counter in an autodpm mode. Data were analyzed bylog-logit transformation or non-linear regression analysis (e.g., employing GraphPad Prism, available from GraphPad Software, San Diego, Calif.) to give IC50 values. Non-specific binding was defined by 10 μM cytisine.

[2] = molecular target: muscarinic acetylcholine receptors; assay: ^3 H-QNB (quinuclidinyl benzilate) binding/displacement, rat cerebral membranes; conditions: ^3 H-QNB 60 pM, rat cerebral membranes
[3] = tested on: rats with unilateral 6-hydroxydopamine lesions of the nigrostriatal dopamine pathway; format: in vivo, rat (male Sprague-Dawley); conditions: 20 mg/kg, s.c., per one hour interval
Protocol: Selective lesions of the brain dopamine pathway using the neurotoxin 6-hydroxydopamine (6-OHDA) in rats can be used as an experimental approach to Parkinson's disease. Unilateral lesions of the nigrostriatal dopamine pathway induce a postural asymmetry which becomes manifested as rotation when the animals are activated by dopamine releasers or dopamine agonists. When amphetamine and other stimulant drugs that induce pre-synaptic release of dopamine from intact nerve terminals are administered, the rats rotate in a direction ipsilateral to the lesion. In contrast, when the rats are injected with post-synaptic dopamine receptor agonists, such as apomorphine, they turn in a contralateral direction, due to the development of supersensitive dopamine receptors in the lesioned side. Thus, the 6-OHDA model can be used to determine if a suspected dopaminergic agent is active, and to differentiate whether such action is pre- or post-synaptic.
The effects of invention compounds on rotational behavior in 6-hydroxydopamine denervated rats were evaluated using the procedure of Ungerstedt and Arbutknott, Brain Res. 24:485-493 (1970). Male Sprague-Dawley rats (Zivic Miller) weighing 170-200 gm were used in the 6-OHDA procedure. The ascending nigrostriatal dopamine pathway was lesioned by unilateral stereotaxic injection of 6-OHDA (8.0 μg) into one substantia nigra. All injections of 6-OHDA were preceded by desmethylimipramine (25 mg/kg i.p.) and pargyline (75 mg/kg i.p.) approximately 30 minutes prior to undergoing stereotaxic surgery for 6-OHDA infusion into the substantia nigra. After one week of recovery from surgery, the effectiveness of the lesions was verified by noting the response of the animals to apomorphine (0.2 mg/kg, s.c.). Only rats with a minimum rate of 80 contralateral turns per 30 minutes (a sign of more than 80-90% dopamine depletion after a 6-OHDA lesion) were used. Two weeks later, the selected rats were tested with invention and reference compounds using an automated rotometer system to record the number and direction of rotations. In order to distinguish spontaneous (non-specific)rotations from induced rotations (specific to the effect of the drug), each rat was used as its own control, employing the following procedure:
The rat was placed in the rotometer system for acclimatation for 15 minutes, the vehicle administered subcutaneously, the rat's rotations recorded for one hour, then test compound was administered s.c. and rotations again recorded for one hour. The number of ipsilateral rotations induced by vehicle was then compared to the number of ipsilateral rotations induced by test compound. Statistical analysis of the data was carried out using Student's t-test (paired).

rats = assay: Locomotor activity assay; format: in vivo, rat (male Sprague-Dawley); conditions: Rattus norvegicus, sc, 20 mg/kg, s.c.
[4] = 1 h, 0-60 min, read-out: Ambulation (cross overs), percent of change from control
[5] = 1 h, 0-60 min, read-out: General Activity (beam breaks), percent of change from control
[6] = 2 h, 60-120 min, read-out: General Activity (beam breaks), percent of change from control
[7] = ^3 H-nicotine 1.9 nM, rat cerebral membranes, read-out: IC50, Nicotine
[8] = 2 h, 60-120 min, read-out: Ambulation (cross overs), percent of change from control

T1 sequence (P09483 31-630): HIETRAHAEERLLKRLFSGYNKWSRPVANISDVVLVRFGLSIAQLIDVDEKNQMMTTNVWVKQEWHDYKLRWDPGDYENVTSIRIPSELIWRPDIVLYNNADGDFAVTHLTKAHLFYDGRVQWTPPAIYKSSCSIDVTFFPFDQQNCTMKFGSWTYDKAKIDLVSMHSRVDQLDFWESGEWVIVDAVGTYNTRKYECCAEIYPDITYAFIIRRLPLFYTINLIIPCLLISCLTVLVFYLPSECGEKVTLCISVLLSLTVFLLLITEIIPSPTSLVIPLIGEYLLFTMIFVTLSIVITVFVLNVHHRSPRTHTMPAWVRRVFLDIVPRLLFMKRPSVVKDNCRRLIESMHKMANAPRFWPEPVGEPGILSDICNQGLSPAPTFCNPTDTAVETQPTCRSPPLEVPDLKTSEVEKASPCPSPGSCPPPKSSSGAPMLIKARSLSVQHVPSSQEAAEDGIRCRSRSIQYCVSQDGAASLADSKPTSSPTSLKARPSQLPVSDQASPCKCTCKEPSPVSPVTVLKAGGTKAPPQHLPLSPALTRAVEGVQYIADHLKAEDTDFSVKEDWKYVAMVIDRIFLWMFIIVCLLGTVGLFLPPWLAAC
T1 sequence (P12390 25-500): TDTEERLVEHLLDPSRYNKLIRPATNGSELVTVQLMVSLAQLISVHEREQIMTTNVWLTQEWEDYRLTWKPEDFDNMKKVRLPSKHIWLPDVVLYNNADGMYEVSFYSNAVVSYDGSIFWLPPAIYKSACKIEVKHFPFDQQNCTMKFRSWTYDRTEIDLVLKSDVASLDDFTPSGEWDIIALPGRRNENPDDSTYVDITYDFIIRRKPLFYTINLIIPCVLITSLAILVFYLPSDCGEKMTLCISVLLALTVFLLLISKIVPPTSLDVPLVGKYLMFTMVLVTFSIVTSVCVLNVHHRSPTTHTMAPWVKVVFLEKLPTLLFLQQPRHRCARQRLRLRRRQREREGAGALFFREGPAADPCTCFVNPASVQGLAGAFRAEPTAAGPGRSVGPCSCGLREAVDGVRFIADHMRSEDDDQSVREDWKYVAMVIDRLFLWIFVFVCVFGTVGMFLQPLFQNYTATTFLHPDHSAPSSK

SMILES | IC50 ([1]; IC50, Nicotine) [nM] | IC50 [2] [nM] | Percent change from control (ipsilateral rotations) [3] | change in vivo at 20 mg/kg (rats; [4]) [%] | change in vivo at 20 mg/kg (rats; [5]) [%] | change in vivo at 20 mg/kg (rats; [6]) [%] | IC50 [1, 7] [nM] | change in vivo at 20 mg/kg (rats; [8]) [%]
C#Cc1cncc(C2CCCN2C)c1.O=C(O)/C=C/C(=O)O (racemic) [R^5 = ethynyl (racemic), 5-Ethynyl-3-(1-methyl-2-pyrrolidinyl)pyridine fumarate] | 4.6 | 10100 | +406% | 631 | 509 | 628 | – | –
CN1CCCC1c1cncc(-c2ccc(O)c(Cl)c2)c1.O=C(O)/C=C/C(=O)O (stereo not drawn) [R^5 = 3-chloro-4-hydroxyphenyl, 5-(4-hydroxy-3-chlorophenyl)-3-(1-methyl-2-pyrrolidinyl)pyridine fumarate] | – | > 10000 | -40% | 63 | 68 | -17 | 28 | -36
CN1CCCC1c1cncc(-c2cccc(Cl)c2)c1.O=C(O)/C=C/C(=O)O (stereo not drawn) [R^5 = 3-chlorophenyl, 5-(3-Chlorophenyl)-3-(1-methyl-2-pyrrolidinyl) pyridine fumarate] | – | 3700 | +62% | 48 | 70 | 220 | 120 | 268
COc1ccc(-c2cncc(C3CCCN3C)c2)cc1F.O=C(O)/C=C/C(=O)O (stereo not drawn) [R^5 = 3-fluoro-4-methoxyphenyl, 5-(3-Fluoro-4-methoxyphenyl)-3-(1-methyl-2-pyrrolidinyl)pyridine fumarate] | – | 30500 | -3% | 58 | 78 | 202 | 27 | 268
